{
  "source": "patent US20190321429A1",
  "about": "“TOPICAL NATURAL LITHRAEA CAUSTICA EXTRACT COMPOSITION AND USE THEREOF IN TUMOURS” (UNIVERSIDAD DE SANTIAGO DE CHILE, priority 2016, published 2019)",
  "key": {"[1]": {"tested_on": "spleen lymphocyte populations", "assay": "T lymphocyte populations in spleen of tumor-challenged treated mice (CD4, CD8, Treg, Th1, Th17)", "assay_type": "in vivo", "conditions": "b6 mice", "experimental": "To analyze the effects of this treatment on lymphocyte populations T to determine if there was an analogy to these clinical cases effect, the treatment effect level spleen lymphocyte populations CD4 and CD8 was evaluated also subpopulations CD4 CD25 foxp3 which realizes regulatory T cells, the CD4+population Tbet+which realizes THL population and the presence of CD4+population+Ror range which realizes TH17 population. Treatment with DPCP associated tumor challenge, induced an increase in Th1 population present in spleen (FIG. 3). The analysis of mice treated b6 at least 8 experiment allows the characterization that this population increased compared to control animals, however, not be significant. […] Value p=0.59.\nAs for the previous case, it was determined that the effect of treatment, this time with DNCB on lymphocyte populations T as in previous case Treg (FIG. 8), Th1 (FIGS. 9A and 9B) and Th17 (FIG. 10) in b6 mice. […] Analysis of at least 8 animals per treatment let characterize the increase in this population is significant.\nFinally, for the case of animals treated with liter extract, it was observed that tumor level, two behaviors that may indicate a temporary dynamic behavior of cell populations response to tumor level. […] Furthermore, the bearings of the other populations are inconclusive (FIG. 17B, 17C and 17D)."}, "[2]": {"tested_on": "B16 murine melanoma model", "assay": "Transplanted B16 melanoma tumor model in B6 mice: tumor appearance and growth under topical treatment", "assay_type": "in vivo", "experimental": "The effect of topical treatment with 0.1% diphencyprone in mice of the B6 strain transplanted tumor model was evaluated bl6. For which initially the animals were challenged with live cells reaching generating detectable tumors between 10 days until day 20 post challenge (FIG. 1). Tumor growth has a linear behavior reaching a peak at day 7 post near challenge (FIG. 2, black circles). […] For both cases the analysis of linear growth curves of both has no significant difference when comparing the slopes. Value p=0.85."}, "[3]": {"conditions": "treatment associated with tumor challenge, versus control animals"}},
  "data": [
    {"smiles": "O=c1c(-c2ccccc2)c1-c1ccccc1", "note": "[DPCP, diphencyprone]", "values": [
      {"measurement": "Th1 population (CD4+ Tbet+) present in spleen", "setting": "[1]; [3]", "value": "increase"},
      {"measurement": "Th17 population (CD4+ Ror gamma+) present in spleen", "setting": "[1]; [3]", "value": "showed no change"},
      {"measurement": "Treg population (CD4 CD25 foxp3) in spleen", "setting": "[1]; [3]", "value": "showed no change"},
      {"measurement": "CD8 or CD4 populations associated with treatment", "setting": "[1]; tumor challenge", "value": "No significant changes"},
      {"measurement": "overall effect of curative treatment on tumor model", "setting": "[2]; mice, DPCP 0.1% to 1%", "value": "not have major effects"},
      {"measurement": "Tumor growth (time 0 = tumor mass detected) versus control animals treated with excipients", "setting": "[2]; topical 0.1% DPCP, B6 mice", "value": "no difference"},
      {"measurement": "tumor appearance, average detection", "setting": "[2]; topical 0.1% diphencyprone, B6 mice, post challenge, shift from 13 days, change not significant", "value": 16, "unit": "days"}
    ]}
  ]
}
